The values that follow come from patent US20080132538A1, “Pharmaceutical uses for fluoroalkoxybenzylamino derivatives of nitrogen containing heterocycles” (Pfizer Inc, priority 2000, published 2008).

In one data set the test system is CCR5 receptors. The settings on record: Proc. Nat'l. Acad. Sci., 98 (7), p3970; cited from earlier work.

As usually defined, the melting point is the temperature of the solid-liquid transition.

As for `CC(C)c1ccc(OC(F)F)c(CN[C@H]2CCCN[C@H]2c2ccccc2)c1.Cl`, the melting point is 245 to 247 °C (dec.).
Still for that read-out and setting: with `CC(C)(C)c1ccc(OC(F)(F)F)c(CN[C@H]2CCCN[C@H]2c2ccccc2)c1.Cl` the figure was 262 to 264 °C; with `Cc1ccc(OC(F)F)c(CN[C@H]2CCCN[C@H]2c2ccccc2)c1.Cl`, above 275 °C.
For `COc1ccccc1CN[C@H]1C2CCN(CC2)[C@H]1C(c1ccccc1)c1ccccc1` [CP-96,345], the “effect on CCR5 receptors” value with CCR5 receptors was “down regulates CCR5 receptors”.
`Cl.FC(F)Oc1ccc(OC(F)F)c(CN[C@H]2CCCN[C@H]2c2ccccc2)c1` had a melting point of 238 to 239 °C.
Same read-out and setting: then `CC(C)(C)c1ccc(OC(F)F)c(CN[C@H]2CCCN[C@H]2c2ccccc2)c1.Cl`, with 263 to 264 °C (dec.); and `CCOc1ccc(OC(F)(F)F)cc1CN[C@H]1CCCN[C@H]1c1ccccc1.Cl`, with > 275 °C (dec.); and `Cl.FC(F)(F)Oc1ccccc1CN[C@H]1CCCN[C@H]1c1ccccc1`, with 231 to 233 °C.
On the same count and under the same terms, then `CC(C)Oc1ccc(OC(F)(F)F)cc1CN[C@H]1CCCN[C@H]1c1ccccc1.Cl`, with 245 to 246 °C (dec.); and `CN(C)c1ccc(OCC(F)(F)F)c(CN[C@H]2CCCN[C@H]2c2ccccc2)c1.Cl`, with 250 to 252 °C.
The molecule `CC(C)c1ccc(OCC(F)(F)F)c(CN[C@H]2CCCN[C@H]2c2ccccc2)c1.Cl` showed a melting point above 280 °C.
Still for that read-out and setting: then `CC(=O)Nc1ccc(OCC(F)(F)F)c(CN[C@H]2CCCN[C@H]2c2ccccc2)c1.Cl`, with above 270 °C.
